# According to patent US8252737B2, “Antimicrobial peptides and methods of use” (priority 2004, dated 2012):
# Where two headings read alike, the source gives them in different places. Square brackets hold non-standard residues; d marks the D form. Peptide text beside a SMILES is read from it.
# How the values were obtained:
# human erythrocytes = test: Hemolytic activity (MHC), Protocol A, 12 hours; conditions: for minimal hemolytic concentration (MHC): incubation for 12 hours at 37° C. (Tables 7 and 8)
# Method: Measurement of Hemolytic Activity—Protocol A: Peptide samples were added to 1% human erythrocytes in phosphate buffered saline (0.08M NaCl; 0.043M Na2PO4; 0.011M KH2PO4) and reactions were incubated at 37° C. for 12 hours in microtiter plates. Peptide samples were diluted 2 fold in order to determine the concentration that produced no hemolysis. […] Hemoglobin release was determined spectrophotometrically at 562 nm. The hemolytic titer was the highest 2-fold dilution of the peptide that still caused release of hemoglobin from erythrocytes. The control for no release of hemoglobin was a sample of 1% erythrocytes without any peptide added. […] Peptide samples were diluted 2 fold in order to determine the concentration that produced no hemolysis. […] Hemoglobin release was determined spectrophotometrically at 570 nm. The hemolytic titer was the highest 2-fold dilution of the peptide that still caused release of hemoglobin from erythrocytes. The control for no release of hemoglobin was a sample of 1% erythrocytes without any peptide added.
# [1] = RP-HPLC temperature profiling (hydrophobicity and self-association/dimerization parameter PA); type: physicochemical; conditions: for tR (min) 5° C.: RP-HPLC retention time at 5° C. during temperature profiling (measure of hydrophobicity); for tR (min) 80° C.: RP-HPLC retention time at 80° C. during temperature profiling; for tR (min) Max: maximal RP-HPLC retention time during temperature profiling 5-80° C.; for PA (min) association parameter: maximal retention time difference relative to control peptide C within 5-80° C.; for ΔtR (X-NVL) (min) 5° C. / ΔtR (X-NVL) (min) 80° C.: non-polar face substitutions, relative hydrophobicity; for ΔtR (X-NVL) (min) 5° C.: retention time difference relative to native peptide V681 (NVL) at 5° C.; for ΔtR (X-NVL) (min) 80° C.: retention time difference relative to native peptide V681 (NVL) at 80° C.
# Procedure, shortened: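 RP-HPLC retention times recorded over temperature profiling from 5°C to 80°C, with retention relative to native V681 at each limit used as hydrophobicity. Self-association parameter PA defined as the maximal change in retention time from 5°C, after subtracting that of monomeric random-coil control peptide C.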
# gram-positive bacteria = tested on: gram-positive bacteria
# Method: Measurement of Antimicrobial Activity—Minimal inhibitory concentrations (MICs) were determined using a standard microtiter dilution method in LB (Luria-Bertani) no-salt medium (10 g of tryptone and 5 g of yeast extract per liter). Briefly, cells were grown overnight at 37° C. in LB and diluted in the same medium. […] Plates were incubated at 37° C. for 24 hours and MICs determined as the lowest peptide concentration that inhibited growth. Alternatively, minimal inhibitory concentrations were determined using a standard microtiter dilution method in a Mueller-Hinton (MH) medium. Briefly, cells were grown overnight at 37° C. in MH broth and diluted in the same medium. […] Plates were incubated at 37° C. for 24 hours and MICs determined as the lowest peptide concentration that inhibited growth. However, for MIC determination of Pseudomonas aeruginosa clinical isolates, brain heart infusion (BH1) medium was used instead of MH broth. In addition, the bacteria were diluted to a final inoculum of 1×10^6 colony-forming units/ml.
# [2] = minimal hemolytic concentration on human red blood cells (hRBC), Table 9
compound,measurement,setting,value
Ac-KWKSFLKTFKSALKTVLHTALKAISS-NH2 [NLL],minimal hemolytic concentration (MHC),human erythrocytes,7.8 µg/mL
same,tR (min) 5° C.,[1],48.16 min
same,tR (min) 80° C.,[1],47.02 min
same,tR (min) Max,[1],50.45 min
same,PA (min) association parameter,[1],4.22 min
same,ΔtR (X-NVL) (min) 5° C.,[1],0.06 min
same,ΔtR (X-NVL) (min) 80° C.,[1],1.19 min
CC[C@H](C)[C@H](NC(=O)[C@H](C)NC(=O)[C@H](CCCCN)NC(=O)[C@H](CC(C)C)NC(=O)[C@H](C)NC(=O)[C@@H](NC(=O)[C@H](Cc1c[nH]cn1)NC(=O)[C@H](CC(C)C)NC(=O)[C@@H](NC(=O)[C@@H](NC(=O)[C@H](CCCCN)NC(=O)[C@H](NC(=O)[C@H](C)NC(=O)[C@H](CO)NC(=O)[C@H](CCCCN)NC(=O)[C@H](Cc1ccccc1)NC(=O)[C@@H](NC(=O)[C@H](CCCCN)NC(=O)[C@H](CC(C)C)NC(=O)[C@H](Cc1ccccc1)NC(=O)[C@H](CO)NC(=O)[C@H](CCCCN)NC(=O)[C@H](Cc1c[nH]c2ccccc12)NC(=O)[C@H](CCCCN)NC(C)=O)[C@@H](C)O)C(C)C)[C@@H](C)O)C(C)C)[C@@H](C)O)C(=O)N[C@@H](CO)C(=O)N[C@@H](CO)C(N)=O [NVD],MIC (μg/ml) Gram-positive,"gram-positive bacteria; geometric mean MIC, Table 9",2.8 µg/mL
same,MHC,human erythrocytes; [2],62.5 µg/mL
same,tR (min) 5° C.,[1],42.55 min
same,tR (min) 80° C.,[1],40.15 min
same,tR (min) Max,[1],43.43 min
same,PA (min) association parameter,[1],2.63 min
same,ΔtR (X-NVL) (min) 5° C.,[1],-5.55 min
same,ΔtR (X-NVL) (min) 80° C.,[1],-5.68 min
CC[C@H](C)[C@H](NC(=O)[C@H](C)NC(=O)[C@H](CCCCN)NC(=O)[C@H](CC(C)C)NC(=O)[C@H](C)NC(=O)[C@@H](NC(=O)[C@H](Cc1c[nH]cn1)NC(=O)[C@H](CC(C)C)NC(=O)[C@@H](NC(=O)[C@@H](NC(=O)[C@H](CCCCN)NC(=O)[C@@H](CO)NC(=O)[C@H](C)NC(=O)[C@H](CO)NC(=O)[C@H](CCCCN)NC(=O)[C@H](Cc1ccccc1)NC(=O)[C@@H](NC(=O)[C@H](CCCCN)NC(=O)[C@H](CC(C)C)NC(=O)[C@H](Cc1ccccc1)NC(=O)[C@H](CO)NC(=O)[C@H](CCCCN)NC(=O)[C@H](Cc1c[nH]c2ccccc12)NC(=O)[C@H](CCCCN)NC(C)=O)[C@@H](C)O)[C@@H](C)O)C(C)C)[C@@H](C)O)C(=O)N[C@@H](CO)C(=O)N[C@@H](CO)C(N)=O [NSD] (Ac-KWKSFLKTFKSA[dS]KTVLHTALKAISS-NH2),MIC (μg/ml) Gram-positive,gram-positive bacteria,16.0 µg/mL
same,MHC,human erythrocytes,>250.0 µg/mL
same,tR (min) 5° C.,[1],37.02 min
same,tR (min) 80° C.,[1],34.08 min
same,tR (min) Max,[1],37.12 min
same,PA (min) association parameter,[1],1.46 min
same,ΔtR (X-NVL) (min) 5° C.,[1],-11.08 min
same,ΔtR (X-NVL) (min) 80° C.,[1],-11.75 min
Ac-KWKSFLKTFKSAGKTVLHTALKAISS-NH2 [NG],MIC (μg/ml) Gram-positive,gram-positive bacteria,7.4 µg/mL
same,minimal hemolytic concentration (MHC),human erythrocytes,125 µg/mL
same,MHC,human erythrocytes; [2],125.0 µg/mL
same,tR (min) 5° C.,[1],39.96 min
same,tR (min) 80° C.,[1],36.74 min
same,tR (min) Max,[1],40.22 min
same,PA (min) association parameter,[1],1.64 min
same,ΔtR (X-NVL) (min) 5° C.,[1],-8.14 min
same,ΔtR (X-NVL) (min) 80° C.,[1],-9.09 min
